Measurements from patent publication US20260234147A1 (priority 2023, published 2026).
Where two headings read alike, the source gives them in different places.

Columns and labels:
[1] = biological target: hMOR (Homo sapiens, UniProt P35372); experiment: Radioligand binding assay (Eurofins Cerep), [3H]DAMGO displacement
[2] = biological target: hDOR (Homo sapiens, UniProt P41143); experiment: Radioligand binding assay (Eurofins Cerep), [3H]DADLE displacement
[3] = biological target: hKOR (Homo sapiens, UniProt P41145); experiment: Radioligand binding assay (Eurofins Cerep), [3H]U69,593 displacement
Sequence of hKOR (P41145 whole entry): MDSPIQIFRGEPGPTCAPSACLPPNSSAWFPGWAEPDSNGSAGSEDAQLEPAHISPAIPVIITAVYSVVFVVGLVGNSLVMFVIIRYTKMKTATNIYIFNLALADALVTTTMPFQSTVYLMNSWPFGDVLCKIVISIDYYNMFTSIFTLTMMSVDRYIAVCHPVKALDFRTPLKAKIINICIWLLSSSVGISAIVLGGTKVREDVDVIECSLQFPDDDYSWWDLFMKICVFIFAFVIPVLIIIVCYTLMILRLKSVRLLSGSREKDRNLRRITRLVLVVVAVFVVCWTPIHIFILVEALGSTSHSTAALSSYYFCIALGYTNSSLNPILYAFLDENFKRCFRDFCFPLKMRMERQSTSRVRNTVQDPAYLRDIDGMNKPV

[4] = biological target: T1, α2A adrenergic receptor (Homo sapiens, UniProt P08913); experiment: Radioligand binding assay (Eurofins Cerep), [3H]RX 821002 displacement
T1 construct: Eurofins Cerep (contract screening)
T1 sequence (P08913 1-465): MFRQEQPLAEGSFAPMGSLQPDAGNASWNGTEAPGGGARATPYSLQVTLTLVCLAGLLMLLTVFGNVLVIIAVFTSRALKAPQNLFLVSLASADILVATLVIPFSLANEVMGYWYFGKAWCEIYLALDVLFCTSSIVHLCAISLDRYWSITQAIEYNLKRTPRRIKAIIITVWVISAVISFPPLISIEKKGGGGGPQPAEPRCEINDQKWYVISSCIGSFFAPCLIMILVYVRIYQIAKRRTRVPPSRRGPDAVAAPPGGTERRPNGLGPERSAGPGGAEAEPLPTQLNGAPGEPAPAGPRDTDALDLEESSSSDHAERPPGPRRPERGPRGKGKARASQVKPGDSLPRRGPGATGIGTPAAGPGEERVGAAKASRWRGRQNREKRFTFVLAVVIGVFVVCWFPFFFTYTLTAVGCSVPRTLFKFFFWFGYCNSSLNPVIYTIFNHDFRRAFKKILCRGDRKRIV

[5] = Table 3-2, 3 independent experiments, read-out: Ki (nM ± SEM) MOR
[6] = Table 3-2, 3 independent experiments, read-out: Ki (nM ± SEM) DOR
[7] = Table 3-2, 3 independent experiments, read-out: Ki (nM ± SEM) KOR
[8] = Ki (nM ± SEM) a2A-AR, Table 3-2, 3 independent experiments
[9] = Table 3-3, 3 independent experiments, read-out: Ki (nM ± SEM) MOR
[10] = Table 3-3, 3 independent experiments, read-out: Ki (nM ± SEM) KOR
[11] = Table B1′, read-out: MOR Ki ± SEM
[12] = Table B1′, read-out: DOR Ki ± SEM
[13] = Table B1′, read-out: KOR Ki ± SEM
[14] = alpha2A Ki ± SEM (nM), Table B1′
[15] = Table B1′, read-out: alpha2A Ki ± SEM
[16] = Table 3-6, 3 independent experiments, read-out: Ki (nM ± SEM) MOR
[17] = Table 3-6, 3 independent experiments, read-out: Ki (nM ± SEM) DOR
[18] = Table 3-6, 3 independent experiments, read-out: Ki (nM ± SEM) KOR
[19] = Ki (nM ± SEM) a2A-AR, Table 3-6, 3 independent experiments
[20] = Table A4, data summary #2, read-out: MOR Ki ± SEM
[21] = Table A4, data summary #2, read-out: DOR Ki ± SEM

Sequence of hDOR (P41143 whole entry): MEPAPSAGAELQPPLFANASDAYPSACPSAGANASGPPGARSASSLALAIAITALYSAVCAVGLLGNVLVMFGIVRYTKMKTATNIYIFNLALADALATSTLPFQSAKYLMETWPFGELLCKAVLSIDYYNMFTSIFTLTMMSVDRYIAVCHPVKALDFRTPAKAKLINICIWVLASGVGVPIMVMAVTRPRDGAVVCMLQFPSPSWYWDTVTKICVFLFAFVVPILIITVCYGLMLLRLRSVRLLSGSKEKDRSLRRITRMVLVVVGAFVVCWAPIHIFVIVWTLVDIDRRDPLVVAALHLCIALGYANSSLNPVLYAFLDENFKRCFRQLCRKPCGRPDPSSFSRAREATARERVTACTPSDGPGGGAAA
Sequence of hMOR (P35372 whole entry): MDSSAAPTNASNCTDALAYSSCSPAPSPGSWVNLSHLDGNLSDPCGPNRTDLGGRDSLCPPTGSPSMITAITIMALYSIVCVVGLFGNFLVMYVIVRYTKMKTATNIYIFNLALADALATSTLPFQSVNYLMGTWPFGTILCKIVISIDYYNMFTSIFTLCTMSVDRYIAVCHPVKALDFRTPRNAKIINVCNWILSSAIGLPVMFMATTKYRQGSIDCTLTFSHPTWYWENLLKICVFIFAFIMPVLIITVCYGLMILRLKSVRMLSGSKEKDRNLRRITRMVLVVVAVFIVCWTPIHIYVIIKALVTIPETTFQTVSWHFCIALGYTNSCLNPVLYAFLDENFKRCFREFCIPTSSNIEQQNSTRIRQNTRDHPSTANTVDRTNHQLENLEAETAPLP

Structure (SMILES): COC(=O)CC1CCN(CCc2c[nH]c3ccc(OC)cc23)CC1 [Compound 3-38]
- Ki [1, 5]: > 10000 nM
- Ki [2, 6]: > 10000 nM
- Ki [3, 7]: 8070 ± 810 nM
- Ki [4, 8]: 1590 ± 225 nM

Structure (SMILES): COC(=O)CC1CCN(CCc2cn(CC(F)(F)F)c3ccccc23)CC1 [Compound 3-44]
- SR: Selectivity Ratio (KiMOR/Kiα2A) ([1]; Table 3-3): 0.76
- Ki [1, 9]: 1480 ± 406 nM
- Ki ([2]; Table 3-3, 3 independent experiments, read-out: Ki (nM ± SEM) DOR): > 10000 nM
- Ki [3, 10]: > 10000 nM
- Ki ([4]; Table 3-3, 3 independent experiments, read-out: Ki (nM ± SEM) a2A-AR): 1940 ± 410 nM

Structure (SMILES): COc1ccccc1C1(O)CCN2CCC(=O)CC2C1 (stereo not shown)
- Ki [1, 11]: > 10000 nM
- Ki [2, 12]: > 10000 nM
- Ki [3, 13]: > 10000 nM
- Ki [4, 14]: 5750 ± 1170 nM

Structure (SMILES): COC(=O)CC1CCN2CCC(c3ccccc3OC)=CC2C1 (stereo not shown)
- Ki [1, 11]: > 10000 nM
- Ki [2, 12]: > 10000 nM
- Ki [3, 13]: > 10000 nM
- Ki [4, 14]: 39 ± 3 nM

Structure (SMILES): COC(=O)CC1CCN(CCc2c[nH]c3ccccc23)CC1 [Compound 3-43]
- Ki [1, 9]: 8910 ± 1800 nM
- Ki ([2]; read-out: Ki (nM ± SEM) DOR, Table 3-3, 3 independent experiments): > 10000 nM
- Ki [3, 10]: > 10000 nM
- Ki ([4]; read-out: Ki (nM ± SEM) a2A-AR, Table 3-3, 3 independent experiments): 1840 ± 201 nM

Structure (SMILES): COC(=O)C=C1CCN2CCC(O)(c3ccccc3OC)CC2C1 (stereo not shown) [drawing 167]
- Ki [1, 11]: > 10000 nM
- Ki [2, 12]: 2940 ± 2550 nM
- Ki [3, 13]: > 10000 nM
- Ki [4, 14]: 227 ± 37 nM

Structure (SMILES): COC(=O)CC1CCN2CCC(O)(c3ccccc3)CC2C1 (stereo not shown) [SG-01-049]
- Ki ([1]; Table B2, mean ± SEM, 3 independent experiments, read-out: MOR Ki ± SEM): 9810 ± 2860 nM
- Ki ([4]; Alpha2A Ki ± SEM (nM), Table B2, mean ± SEM, 3 independent experiments): 80 ± 19 nM

Structure (SMILES): COC(=O)CC1CCN2CC=C(c3ccccc3OC)CC2C1 (stereo not shown)
- Ki [1, 11]: > 10000 nM
- Ki [2, 12]: > 10000 nM
- Ki [3, 13]: > 10000 nM
- Ki [4, 15]: 15 nM

Structure (SMILES): COC(=O)NC1CCN(CCc2c[nH]c3ccccc23)CC1 [Compound 3-68]
- SR: Selectivity Ratio (KiMOR/Kiα2A) ([1]; Table 3-6): 0.37
- Ki [1, 16]: 1890 ± 454 nM
- Ki [2, 17]: > 10000 nM
- Ki [3, 18]: > 10000 nM
- Ki [4, 19]: 5090 ± 730 nM

Structure (SMILES): CC[C@@H]1CN2CCc3c([nH]c4cccc(OC)c34)[C@@H]2C[C@@H]1/C(=C\OC)C(=O)N1CCOCC1 [SUSM-527, (E)-2-((2S,3S,12bS)-3-ethyl-8-methoxy-1,2,3,4,6,7,12,12b-octahydroindolo[2,3-a]quinolizin-2-yl)-3-methoxy-1-morpholinoprop-2-en-1-one]
- Ki [1, 20]: 1660 ± 427 nM
- Ki [2, 21]: > 10000 nM

Structure (SMILES): COC(=O)CN1CCN(CCc2c[nH]c3ccccc23)CC1 [Compound 3-66]
- SR: Selectivity Ratio (KiMOR/Kiα2A) ([1]; Table 3-6): 0.21
- Ki [1, 16]: 2030 ± 694 nM
- Ki ([2]; Ki (nM ± SEM) DOR, Table 3-6, 3 independent experiments): > 10000 nM
- Ki [3, 18]: > 10000 nM
- Ki [4, 19]: 9760 ± 4830 nM

Structure (SMILES): COC=C(C(=O)OC)C1CCN(Cc2ccccc2)CC1 [Compound 3-50]
- Ki ([1]; Table 3-4, 3 independent experiments, read-out: Ki (nM ± SEM) MOR): > 10000 nM
- Ki ([2]; Table 3-4, 3 independent experiments, read-out: Ki (nM ± SEM) DOR): > 10000 nM
- Ki ([3]; Table 3-4, 3 independent experiments, read-out: Ki (nM ± SEM) KOR): 5700 ± 558 nM
- Ki ([4]; Ki (nM ± SEM) a2A-AR, Table 3-4, 3 independent experiments): > 10000 nM

Structure (SMILES): COC(=O)CC1CCN2CCC(c3ccccc3OC)CC2C1 (stereo not shown) [drawing 171]
- Ki [1, 11]: > 10000 nM
- Ki [2, 12]: > 10000 nM
- Ki [3, 13]: > 10000 nM
- Ki [4, 15]: 24 ± 3 nM

Structure (SMILES): COC(=O)CN1CCN(CCc2c[nH]c3cccc(OC)c23)CC1 [Compound 3-65]
- Ki [1, 16]: > 10000 nM
- Ki [2, 17]: > 10000 nM
- Ki [3, 18]: > 10000 nM
- Ki ([4]; Table 3-6, 3 independent experiments, read-out: Ki (nM ± SEM) a2A-AR): 265 ± 64.3 nM

Structure (SMILES): COC(=O)CC1CCN2CCC(c3ccccc3)=CC2C1 (stereo not shown)
- Ki [1, 11]: 7930 ± 1340 nM
- Ki [2, 12]: > 10000 nM
- Ki [3, 13]: 683 ± 142 nM
- Ki [4, 15]: 5 ± 2 nM

Structure (SMILES): CC[C@@H]1CN2CCc3c([nH]c4cccc(OC)c34)[C@@H]2C[C@@H]1/C(=C\OC)C(=O)N(C)Cc1ccccc1 [SUSM-563, (E)-N-benzyl-2-((2S,3S,12bS)-3-ethyl-8-methoxy-1,2,3,4,6,7,12,12b-octahydroindolo[2,3-a]quinolizin-2-yl)-3-methoxy-N-methylacrylamide]
- Ki [1, 20]: 5750 ± 770 nM
- Ki [2, 21]: 4520 ± 1990 nM

Structure (SMILES): CC[C@@H]1CN2CCc3c([nH]c4cccc(OC)c34)[C@@H]2C[C@@H]1/C(=C\OC)C(=O)N1CCNCC1 [SUSM-562, (E)-2-((2S,3S,12bS)-3-ethyl-8-methoxy-1,2,3,4,6,7,12,12b-octahydroindolo[2,3-a]quinolizin-2-yl)-3-methoxy-1-(piperazin-1-yl)prop-2-en-1-one]
- Ki [1, 20]: 4210 ± 558 nM
- Ki [2]: > 10000 nM

Structure (SMILES): COC=C(C(=O)OC)C1CCN(CCc2c[nH]c3cc(OC)ccc23)CC1 [Compound 3-39]
- Ki [1, 5]: > 10000 nM
- Ki [2, 6]: > 10000 nM
- Ki [3, 7]: 9450 ± 2970 nM
- Ki [4, 8]: > 10000 nM
